The NIST ThermoML archive (doi:10.1016/j.jct.2015.08.014)
± gives the expanded uncertainty stated by the source.

Assay: xn = mol fraction of the nth substance listed
Conditions: 273.15 K, 100 kPa, Liquid, Alternating current cell with electrodes

CCCC[N+]1(C)CCCC1.N#CN=C=[N-] [1-butyl-1-methylpyrrolidinium dicyanamide] + O=C1CCCO1
electrical conductivity [S/m]
Conditions | Frequency=0.00446429 MHz | Frequency=0.005 MHz | Frequency=0.005454 MHz | Frequency=0.006 MHz | Frequency=0.00652174 MHz | Frequency=0.00694444 MHz | Frequency=0.0075 MHz | Frequency=0.008 MHz | Frequency=0.00857143 MHz | Frequency=0.00892857 MHz
x1 = 0.0463 | – | 0.977 ± 0.016 | 0.977 ± 0.016 | 0.977 ± 0.016 | 0.978 ± 0.016 | 0.978 ± 0.016 | 0.978 ± 0.016 | 0.978 ± 0.016 | 0.978 ± 0.016 | 0.978 ± 0.016
x1 = 0.0987 | 1.42 ± 0.017 | 1.42 ± 0.017 | 1.43 ± 0.017 | 1.43 ± 0.017 | 1.43 ± 0.017 | 1.43 ± 0.017 | 1.43 ± 0.017 | 1.43 ± 0.017 | 1.43 ± 0.017 | 1.43 ± 0.017
x1 = 0.1449 | 1.56 ± 0.016 | 1.56 ± 0.016 | 1.56 ± 0.016 | 1.56 ± 0.016 | 1.56 ± 0.016 | 1.56 ± 0.016 | 1.56 ± 0.016 | 1.56 ± 0.016 | 1.57 ± 0.016 | 1.57 ± 0.016
x1 = 0.1859 | 1.633 ± 0.016 | 1.633 ± 0.016 | 1.634 ± 0.016 | 1.634 ± 0.016 | 1.634 ± 0.016 | 1.634 ± 0.016 | 1.634 ± 0.016 | 1.635 ± 0.016 | 1.635 ± 0.016 | 1.635 ± 0.016
x1 = 0.2493 | 1.516 ± 0.015 | 1.517 ± 0.015 | 1.517 ± 0.015 | 1.517 ± 0.015 | 1.517 ± 0.015 | 1.517 ± 0.015 | 1.517 ± 0.015 | 1.517 ± 0.015 | 1.517 ± 0.015 | 1.517 ± 0.015
x1 = 0.3029 | 1.42 ± 0.015 | 1.42 ± 0.015 | 1.42 ± 0.015 | 1.42 ± 0.015 | 1.42 ± 0.015 | 1.42 ± 0.015 | 1.42 ± 0.015 | 1.42 ± 0.015 | 1.42 ± 0.015 | 1.42 ± 0.015
x1 = 0.3845 | 1.25 ± 0.013 | 1.25 ± 0.013 | 1.25 ± 0.013 | 1.25 ± 0.013 | 1.25 ± 0.013 | 1.25 ± 0.013 | 1.25 ± 0.013 | 1.25 ± 0.013 | 1.25 ± 0.013 | 1.25 ± 0.013
x1 = 0.4985 | 1.03 ± 0.011 | 1.03 ± 0.011 | 1.03 ± 0.011 | 1.03 ± 0.011 | 1.03 ± 0.011 | 1.03 ± 0.011 | 1.03 ± 0.011 | 1.03 ± 0.011 | 1.03 ± 0.011 | 1.03 ± 0.011
x1 = 0.6954 | 0.742 ± 0.008 | 0.742 ± 0.008 | 0.742 ± 0.008 | 0.742 ± 0.008 | 0.742 ± 0.008 | 0.742 ± 0.008 | 0.742 ± 0.008 | 0.742 ± 0.008 | 0.742 ± 0.008 | 0.742 ± 0.008
x1 = 0.9013 | 0.562 ± 0.006 | 0.562 ± 0.006 | 0.562 ± 0.006 | 0.562 ± 0.006 | 0.563 ± 0.006 | 0.563 ± 0.006 | 0.563 ± 0.006 | 0.563 ± 0.006 | 0.563 ± 0.006 | –
x1 = 1 | 0.523 ± 0.005 | 0.523 ± 0.005 | 0.523 ± 0.005 | 0.523 ± 0.005 | 0.523 ± 0.005 | 0.523 ± 0.005 | 0.523 ± 0.005 | 0.523 ± 0.005 | 0.523 ± 0.005 | –
